Assay [1] concerns CGRP-induced increase in laser Doppler facial blood flow. Briefly: Non-terminal laser Doppler facial blood flow model in non-human primate. Type of assay: in vivo, common marmoset (Callithrix jacchus). The following applies: iv, CGRP 10 μg/kg. From the text:
Overview. […] Non-human primates (e.g., marmosets) are the only animals known to have human-like CGRP receptor pharmacology conferred by the presence of the specific amino acid residue (Trp74) in their RAMP1 sequence which is responsible for the phenotype of the human receptor (Mallee et al. J Biol Chem 2002 277:14294). […] Peptide and small-molecule CGRP-receptor antagonists were used to validate the non-human primate model.
Animals. Adult male and female common marmosets (Callithrix jacchus) purchased from Harlan and weighing 350-550 g served as subjects. Other mammals endogenously expressing RAMP1 having Trp 74 or transgenic mammals with humanized RAMP1 having Trp 74 can also be employed in A compound described herein.
Anesthesia & Surgical Preparation. Animals are anesthetized by isoflurane inhalation in an induction chamber (4-5% rapid induction, maintained with 1-2.5%; Solomon et al., 1999). Anesthesia is maintained by delivering a constant supply of air:oxygen (50:50) and isoflurane via face mask, or by intubation and ventilation (with blood gas monitoring). Body temperature is maintained at 38±0.5° C. by placement on an automated temperature controlled surface with rectal probe. A small area of fur (approx. 1.5 cm square) is removed from one or both sides of the face by application of a depilatory cream and/or shaving. Surgical areas are clipped and prepared with betadine. An i.v. line is placed in any accessible vein for the administration of test compounds and CGRP-receptor agonist and, if needed, withdrawal of blood samples (max 2.5 ml, 10%) for blood gas monitoring and content analysis. A solution of 5% dextrose is administered i.v. in order to maintain blood sugar levels. Anesthesia depth is monitored by measuring blood pressure and heart rate using a non-invasive arm cuff method and a pulse oximeter, respectively. Guanethidine 5-10 mg/kg i.v., supplemented with 5 mg/kg i.v. as needed, may be given to stabilize the peak flux in facial blood flow seen with repeated stimulation-induced changes in blood flow (Escott et al., 1999; incorporated by reference herein). Microvascular blood flow is monitored by attaching a self adhesive laser Doppler flow probe to the facial skin.
Compound Administration Test compounds may be administered i.v. (0.01-5 ml/kg), i.m. (0.01-0.5 ml/kg), s.c. (0.01-5 ml/kg) or p.o. (0.1-10 ml/kg) (Diehl et al., 2001; incorporated by reference herein). CGRP-receptor agonists may be delivered i.v. (0.01-5 ml/kg), i.d. (10-100 μl/site) or s.c. (10-100 μl/site).

Assay [2] has as its system human cerebral vessels (CGRP-induced dilation). Briefly: Ex Vivo Human Cerebral Artery Assay, reversal of CGRP-induced relaxation. The note with it: reversal of 1 nM hCGRP-induced relaxation, vessels pre-contracted with 10 mM KCl. A digest of the protocol: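 Autopsy human cerebral artery rings (4-5 mm) in Krebs buffer, 37 °C, pH 7.4, carbogen; primed with 100 mM KCl, pre-contracted with 10 mM KCl and fully dilated with 1 nM hCGRP. Antagonists added cumulatively in half-log steps; tension recorded as % reversal of CGRP relaxation, EC50 by four-parameter logistic fit per vessel.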

By EC50 is commonly meant the midpoint of the concentration-response curve.

Take `Cc1cc(CC(NC(=O)N2CCC(N3Cc4ccccc4NC3=O)CC2)C(=O)N2CCC(N3CCCCC3)CC2)cc2cn[nH]c12` (racemic) [Example 16, (±)-4-(2-Oxo-1,4-dihydro-2H-quinazolin-3-yl)-piperidine-1-carboxylic acid[2-[1,4′]bipiperidinyl-1′-yl-1-(7-methyl-1H-indazol-5-ylmethyl)-2-oxo-ethyl]-amide]: the “% Inhibition of CGRP-induced increase in laser Doppler facial blood flow” value in assay [1] (0.03 mg/kg) is listed as “Y (50%<Y≦75%)”. For the same molecule, in assay [2], the EC50 was < 10 nM.
Consider `Cc1cc(CC(CC(=O)N2CCC(N3Cc4ccccc4NC3=O)CC2)C(=O)N2CCC(N3CCCCC3)CC2)cc2cn[nH]c12` (racemic) [Example 69, (±)-1-[1,4′]Bipiperidinyl-1′-yl-2-(7-methyl-1H-indazol-5-ylmethyl)-4-[4-(2-oxo-1,4-dihydro-2H-quinazolin-3-yl)-piperidin-1-yl]-butane-1,4-dione], for which the “% Inhibition of CGRP-induced increase in laser Doppler facial blood flow” value in assay [1] (0.03 mg/kg) is “Y (50%<Y≦75%)”; in assay [1] (0.1 mg/kg), “Z (Z>75%)”. In addition, in assay [2], the EC50 is < 10 nM.

The record behind these values is patent US7842808B2, “Anti-migraine spirocycles” (Bristol-Myers Squibb Company, priority 2002, dated 2010).
